{"source": "patent US9284325B2", "about": "“Spectinamides as anti-tuberculosis agents” (UNIVERSITY OF TENNESSEE RESEARCH FOUNDATION, priority 2009, dated 2016)", "test_system": "M. tuberculosis drug-resistant strains and mutants", "type": "cell-based, Mycobacterium tuberculosis", "note": "Structures can show the parent of a compound that is named as a salt."}
{"smiles": "CN[C@@H]1[C@H](O)[C@H](NC)C2O[C@]3(O)C(OC2[C@H]1O)O[C@H](C)C[C@H]3NC(=O)Cc1ccccn1", "note": "(stereo partly drawn) [Compound 1329, 3′-Dihydro-3′-deoxy-4(R)-(pyridin-2yl)acetylamino spectinomycin Dihydrochloride]", "values": [{"measurement": "cross resistance with first-line TB drugs isoniazid, rifampicin and ethambutol", "result": "no cross resistance"}, {"measurement": "susceptibility of spontaneous streptomycin mutants incl. ATCC 35820", "result": "highly susceptible"}, {"measurement": "Activity (MIC) of 1329 compared to streptomycin", "setting": "Dihydrochloride", "result": ">200"}]}
